From ChEMBL document CHEMBL3877242, “Synthesis of novel 25-hydroxyprotopanaxadiol derivatives by methylation and methoxycarbonylation using dimethyl carbonate as a environment-friendly reagent and their anti-tumor evaluation” (Bioorg Med Chem Lett, 2016) come the findings set out here.

The nature of data set [1]: Cytotoxicity against human IOSE-144 cells assessed as reduction in cell viability after 48 hrs by MTT assay. In kind it is toxicity, cell-based. (Tetrazolium assays rely on reduction of a dye to a coloured formazan, in cell work by metabolically active cells.)
For data set [2], the system named is DU-145. Put plainly: (§1) Cytotoxicity against human DU145 cells assessed as reduction in cell viability after 48 hrs by MTT assay. The data set is classed as functional, cell-based.
The nature of data set [3]: as §1. The data set is classed as functional, cell-based. To be noted: DU-145, 48 h.
A short description of data set [4]: Cytotoxicity against human HeLa cells assessed as reduction in cell viability after 48 hrs by MTT assay. The data set is classed as functional, cell-based.
Data set [5] can be described thus: Cytotoxicity against human HeLa cells assessed as cell growth inhibition at 30 uM after 48 hrs by MTT assay. In kind it is functional. The note with it: read-out: GI.
The nature of data set [6]: Cytotoxicity against human DU145 cells assessed as viable cells at 30 uM after 48 hrs by MTT assay. The note with it: DU-145, 48 h, read-out: GI. The data set is classed as functional.
The subject of data set [7] is DU-145. The data set can be described thus: Potency index, ratio of 5-FU IC50 to compound IC50 for human DU145 cells. In kind it is functional.

For `COC(=O)OC(C)(C)CCC[C@@](C)(O)[C@H]1CC[C@]2(C)[C@@H]1[C@H](O)C[C@@H]1[C@@]3(C)CC[C@H](O)C(C)(C)[C@@H]3CC[C@]12C`, the IC50 at 48 h in data set [1] was above 100 µM. Further, the “growth inhibition (GI)” value in the data set with DU-145 [2] was “Dose-dependent effect”. For the same compound, the IC50 in data set [3] stood at 27.2 µM; in data set [4], 26.9 µM.
On to `COC(C)(C)CCC[C@@](C)(O)[C@H]1CC[C@]2(C)[C@@H]1[C@H](O)C[C@@H]1[C@@]3(C)CC[C@H](O)C(C)(C)[C@@H]3CC[C@]12C`, for which the half-maximal inhibitory concentration (IC50) at 48 h in data set [1] is above 100 µM. The results for the IC50 in data set [3] and in data set [4] were 5.4 µM and 22.5 µM, respectively.
For `COC(=O)O[C@H]1CC[C@]2(C)[C@H]3C[C@@H](O)[C@@H]4[C@@H]([C@@](C)(CCCC(C)(C)OC(=O)OC)OC)CC[C@@]4(C)[C@]3(C)CC[C@H]2C1(C)C`, in data set [1], the IC50 at 48 h is above 100 µM. In addition, the “growth inhibition (GI)” value with DU-145 [2] is “Dose-dependent effect”. Moreover, the IC50 was found to be 32.6 µM in data set [3] and 38.2 µM in data set [4].
Consider `COC(=O)O[C@H]1CC[C@]2(C)[C@H]3C[C@@H](O)[C@@H]4[C@@H](/C(C)=C/CCC(C)(C)O)CC[C@@]4(C)[C@]3(C)CC[C@H]2C1(C)C`, for which, in data set [1], the IC50 at 48 h is above 100 µM. Further, the inhibition of growth at 30 µM in data set [5] and in data set [6] was 19.7% each time. For the same compound, in the data set with DU-145 [2], the “growth inhibition (GI)” value was “Dose-dependent effect”. The IC50 in data set [3] came to 10.9 µM; in data set [4], 15.9 µM.
On to `COC(=O)O[C@H]1CC[C@]2(C)[C@H]3C[C@@H](O)[C@@H]4[C@@H]([C@](C)(O)CCCC(C)(C)O)CC[C@@]4(C)[C@]3(C)CC[C@H]2C1(C)C`, for which the IC50 at 48 h in data set [1] was above 100 µM. The “growth inhibition (GI)” value with DU-145 [2] is “Dose-dependent effect”. The IC50 in data set [3] stood at 87.1 µM; in data set [4], 59.9 µM.
As to `O=c1[nH]cc(F)c(=O)[nH]1` [FLUOROURACIL], the concentration for half-maximal inhibition (IC50) at 48 h in data set [1] is 36.1 µM. Moreover, the IC50 stood at 26.1 µM in data set [3] and 28.2 µM in data set [4].
As for `CC(C)(O)CCC[C@@](C)(O)[C@H]1CC[C@]2(C)[C@@H]1[C@H](O)C[C@@H]1[C@@]3(C)CC[C@H](O)C(C)(C)[C@@H]3CC[C@]12C`, the IC50 at 48 h in data set [1] was above 100 µM. Also, the IC50 in data set [3] worked out at 57.9 µM; in data set [4], 46.4 µM.
`COC(=O)O[C@H]1CC[C@]2(C)[C@H]3C[C@@H](O)[C@@H]4[C@@H]([C@@](C)(CCC=C(C)C)OC)CC[C@@]4(C)[C@]3(C)CC[C@H]2C1(C)C`: the 50% inhibitory concentration (IC50) at 48 h in data set [1] is above 100 µM. In the data set with DU-145 [2], the “growth inhibition (GI)” value is “Dose-dependent effect”. The results for the IC50 in data set [3] and in data set [4] were 41.1 µM and 30.2 µM, respectively.
Taken in the same sequence, the figures for `COC(=O)O[C@H]1CC[C@]2(C)[C@H]3C[C@@H](O)[C@@H]4[C@@H]([C@](C)(O)CCCC(C)(C)OC(=O)OC)CC[C@@]4(C)[C@]3(C)CC[C@H]2C1(C)C` were above 100 µM, “Dose-dependent effect”, 29.2 µM and 34.6 µM.
With `CO[C@H]1CC[C@]2(C)[C@H]3C[C@@H](OC)[C@@H]4[C@@H]([C@@](C)(CCCC(C)(C)OC)OC)CC[C@@]4(C)[C@]3(C)CC[C@H]2C1(C)C`, the half-maximal inhibitory concentration (IC50) at 48 h in data set [1] was above 100 µM. Moreover, the “growth inhibition (GI)” value with DU-145 [2] was “Dose-dependent effect”. Further, the IC50 in data set [3] turned out to be 18.7 µM; in data set [4], 21.8 µM.
With `COC(=O)O[C@H]1CC[C@]2(C)[C@H]3C[C@@H](O)[C@@H]4[C@@H]([C@@](C)(CCCC(C)(C)O)OC)CC[C@@]4(C)[C@]3(C)CC[C@H]2C1(C)C`, in data set [1], the IC50 at 48 h is above 100 µM. The inhibition of growth at 30 µM in data set [5] and in data set [6] was 18.6% throughout. Moreover, the “growth inhibition (GI)” value with DU-145 [2] was “Dose-dependent effect”. The IC50 in data set [3] amounted to 3.9 µM; in data set [4], 7.1 µM.
As to `CO[C@H]1CC[C@]2(C)[C@H]3C[C@@H](OC)[C@@H]4[C@@H](/C(C)=C/CCC(C)(C)O)CC[C@@]4(C)[C@]3(C)CC[C@H]2C1(C)C`, the IC50 at 48 h in data set [1] is above 100 µM. Moreover, the “growth inhibition (GI)” value in the data set with DU-145 [2] is “Dose-dependent effect”. Besides, the IC50 in data set [3] was determined as 12.1 µM; in data set [4], 1.2 µM.
As for `COC(C)(C)CC/C=C(\C)[C@H]1CC[C@]2(C)[C@@H]1[C@H](O)C[C@@H]1[C@@]3(C)CC[C@H](O)C(C)(C)[C@@H]3CC[C@]12C`, in data set [1], the IC50 at 48 h is above 100 µM. Also, the inhibition of growth at 30 µM in data set [5] and in data set [6] was 20.4% throughout. Further, the “growth inhibition (GI)” value with DU-145 [2] was “Dose-dependent effect”. For the same compound, the IC50 in data set [3] was found to be 3.2 µM; in data set [4], 1.3 µM.
Regarding `COC(=O)O[C@H]1CC[C@]2(C)[C@H]3C[C@@H](OC(=O)OC)[C@@H]4[C@@H](/C(C)=C/CCC(C)(C)OC(=O)OC)CC[C@@]4(C)[C@]3(C)CC[C@H]2C1(C)C`, the IC50 at 48 h in data set [1] was above 100 µM. Besides, the “growth inhibition (GI)” value in the data set on DU-145 [2] is “Dose-dependent effect”. Further, the IC50 in data set [3] is 80.3 µM; in data set [4], above 100 µM.
For the compound `COC(=O)O[C@H]1CC[C@]2(C)[C@H]3C[C@@H](O)[C@@H]4[C@@H]([C@](C)(O)CCC=C(C)C)CC[C@@]4(C)[C@]3(C)CC[C@H]2C1(C)C`, the IC50 at 48 h in data set [1] is above 100 µM. Also, the inhibition of growth at 30 µM in data set [5] and in data set [6] was 38.4% each time. Further, the “growth inhibition (GI)” value in the data set with DU-145 [2] was “Dose-dependent effect”. Also, the results for the IC50 in data set [3] and in data set [4] were 1.2 µM and 10.4 µM, respectively. The “Ratio IC50” value with DU-145 [7] is recorded as 20 - 22.
On to `CO[C@](C)(CCC=C(C)C)[C@H]1CC[C@]2(C)[C@@H]1[C@H](O)C[C@@H]1[C@@]3(C)CC[C@H](O)C(C)(C)[C@@H]3CC[C@]12C`, for which the IC50 at 48 h in data set [1] is above 100 µM. The inhibition of growth at 30 µM in data set [5] and in data set [6] was 20.6% each time. Besides, in the data set on DU-145 [2], the “growth inhibition (GI)” value is “Dose-dependent effect”. The IC50 in data set [3] was found to be 2.6 µM; in data set [4], 1.1 µM. In addition, the “Ratio IC50” value in the data set on DU-145 [7] is on record as 20 - 22.
For the compound `CO[C@H]1CC[C@]2(C)[C@H]3C[C@@H](O)[C@@H]4[C@@H]([C@@](C)(CCCC(C)(C)O)OC)CC[C@@]4(C)[C@]3(C)CC[C@H]2C1(C)C`, the IC50 at 48 h in data set [1] is above 100 µM. Besides, the inhibition of growth at 30 µM in data set [5] and in data set [6] was 32.5% each time. In the data set with DU-145 [2], the “growth inhibition (GI)” value is “Dose-dependent effect”. The IC50 in data set [3] amounted to 5.6 µM; in data set [4], 6.7 µM.

For orientation: IC50 means the concentration needed to halve the response being measured.
